In ChEMBL document CHEMBL1201862, “PubChem BioAssay data set” (2004):
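Five concentrations, 48 hours, 96-well plates. GI50: concentration for 50% inhibition of growth.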 Activity calls are given as the source filed them. No stated cut-off is given here; in the data, active = GI50 up to about 1.1 µM and inactive = higher.

Experiments:
Experiment in all cases: NCI tumour cell line growth inhibition, 48 h
[1] = system: M14
[2] = system: HCT-15
[3] = system: SF-539
[4] = system: Malme-3M
[5] = system: OVCAR-4
[6] = system: RXF 393
[7] = system: MDA-MB-231
[8] = system: DU-145
[9] = system: 786-0
[10] = system: CCRF-CEM
[11] = system: OVCAR-3
[12] = system: UACC-257
[13] = system: SK-MEL-5
[14] = system: LOX IMVI
[15] = system: HT-29
[16] = system: EKVX
[17] = system: SK-MEL-2
[18] = system: SF-268
[19] = system: A549
[20] = system: KM12
[21] = system: UACC-62
[22] = system: NCI-H23
[23] = system: HOP-92
[24] = system: U-251
[25] = system: SN12C
[26] = system: ACHN
[27] = system: SNB-19
[28] = system: BT-549
[29] = system: A498
[30] = system: SF-295
[31] = system: T47D
[32] = system: OVCAR-8
[33] = system: MDA-N
[34] = system: HL-60
[35] = system: MOLT-4
[36] = system: IGROV-1
[37] = system: NCI-H460
[38] = system: SW-620
[39] = system: SK-OV-3
[40] = system: UO-31
[41] = system: MCF7
[42] = system: HCC 2998
[43] = system: NCI-H226
[44] = system: NCI-H522
[45] = system: SK-MEL-28
[46] = system: MDA-MB-435
[47] = system: PC-3
[48] = system: RPMI-8226
[49] = system: HOP-62
[50] = system: CAKI-1
[51] = system: SR
[52] = system: OVCAR-5
[53] = system: TK-10
[54] = system: HCT-116
[55] = system: K562
[56] = system: NCI/ADR-RES
[57] = system: COLO 205
[58] = system: Hs-578T

In the case of C1CSC(Sc2nc(SC3=NCCS3)nc(SC3=NCCS3)n2)=N1, the GI50 [1] was > 100 µM (inactive), the GI50 [2] was over 100 µM and the GI50 [3] was > 100 µM (inactive). For the same molecule, the GI50 [4] was > 100 µM (inactive), the GI50 [5] was > 100 µM (inactive) and the GI50 [6] was > 100 µM (inactive). The GI50 [7] was > 100 µM (inactive), the GI50 [8] was > 100 µM (inactive) and the GI50 [9] was > 100 µM (inactive). The GI50 [10] was > 100 µM (inactive), the GI50 [11] was > 100 µM (inactive) and the GI50 [12] was > 100 µM (inactive). The GI50 [13] was > 100 µM (inactive), the GI50 [14] was > 100 µM (inactive) and the GI50 [15] was > 100 µM (inactive). For the same molecule, the GI50 [16] was > 100 µM (inactive), the GI50 [17] was > 100 µM (inactive) and the GI50 [18] was > 100 µM (inactive). For the same molecule, the GI50 [19] was > 100 µM (inactive), the GI50 [20] was > 100 µM (inactive) and the GI50 [21] was > 100 µM (inactive). For the same molecule, the GI50 [22] was > 100 µM (inactive), the GI50 [23] was > 100 µM (inactive) and the GI50 [24] was > 100 µM (inactive). For the same molecule, the GI50 [25] was > 100 µM (inactive), the GI50 [26] was > 100 µM (inactive) and the GI50 [27] was > 100 µM (inactive). The GI50 [28] was > 100 µM (inactive), the GI50 [29] was > 100 µM (inactive) and the GI50 [30] was > 100 µM (inactive). The GI50 [31] was > 100 µM (inactive), the GI50 [32] was > 100 µM (inactive) and the GI50 [33] was > 100 µM (inactive). For the same molecule, the GI50 [34] was > 100 µM (inactive), the GI50 [35] was > 100 µM (inactive) and the GI50 [36] was > 100 µM (inactive). For the same molecule, the GI50 [37] was > 100 µM (inactive), the GI50 [38] was > 100 µM (inactive) and the GI50 [39] was > 100 µM (inactive). The GI50 [40] was > 100 µM (inactive), the GI50 [41] was > 100 µM (inactive) and the GI50 [42] was > 100 µM (inactive). For the same molecule, the GI50 [43] was > 100 µM (inactive), the GI50 [44] was 35.5 µM (inactive) and the GI50 [45] was > 100 µM (inactive). For the same molecule, the GI50 [46] was > 100 µM (inactive), the GI50 [47] was > 100 µM (inactive) and the GI50 [48] was > 100 µM (inactive). For the same molecule, the GI50 [49] was > 100 µM (inactive), the GI50 [50] was > 100 µM (inactive) and the GI50 [51] was > 100 µM (inactive). For the same molecule, the GI50 [52] was > 100 µM (inactive), the GI50 [53] was > 100 µM (inactive) and the GI50 [54] was > 100 µM (inactive). The GI50 [55] was > 100 µM (inactive), the GI50 [56] was > 100 µM (inactive) and the GI50 [57] was > 100 µM (inactive). The GI50 [58] was > 100 µM (inactive).
